# Results published in patent US20260262656A1, “COMPOSITION AND METHOD FOR PROMOTING COLONIZATION OF ARBUSCULAR MYCORRHIZAL FUNGI” (National University Corporation Tottori University, priority 2022, published 2026).
# Assays:
# [1] = system: Arbuscular mycorrhizal fungus Rhizophagus irregularis DAOM197198; assay: Hyphal branching of AM fungus cultured on gel media; format: cell-based; conditions: for hyphal branch numbers compared to the negative control: FIG. 2; for hyphal branch numbers compared to the negative control / activity for promoting hyphal branching (hyphal branch number per spore): Steel test; for hyphal branching activity compared with positive control GR24: GR24 at 100 nM, FIG. 1 and FIG. 2; for activity for promoting hyphal branching (hyphal branch number per spore): concentration range tested 1 to 100 nM, 7-10 days
# Description: • Arbuscular mycorrhizal fungus Rhizophagus irregularis DAOM197198 (Premier Tech Biotechnologies)
# The spores of the AM fungi were separated and cultured on gels according to the conventional procedures outlined below.
# 1. In a 50 mL centrifuge tube, Gastrografin aqueous solutions having different densities were gently layered in the order of 50% (10 mL), 32% (5 mL), 16% (5 mL), and 8% (5 mL), and finally 5 mL of a spore suspension of R. irregularis (hereinafter called the AM fungus) was loaded, and centrifugation was performed at 500 g for 10 minutes.
# 2. The spores separated in the density gradient from the above were collected on a cell strainer and washed with sterilized water 3 times.
# 3. The spores were suspended in sterilized water at 4000 spores/mL.
# 4. A 4 μL drop (about 8 spores) each of the spore suspension diluted to 2000 spores/mL was put in the center portion of the M medium (New Phytol. 108:211-218), which had been dispensed in a 24-well plate at 350 μL each.
# 5. After it was left for 5 minutes to allow excess moisture to evaporate, 200 μL each of 0.3% Phytagel (3 mM MgSO4) at a temperature of about 50° C. was gently poured over the spores. Three to four wells were prepared per treatment group.
# 6. They were cultured in the dark for 5 days at 25° C. to let the spores germinate in advance.
# 1. rac-GR24 (hereinafter denoted as GR24), a synthetic strigolactone known to have a hyphal branching activity for the AM fungi, was used as a positive control. From the GR24 stored in acetone, the solvent was removed in vacuo, and GR24 was resuspended in distilled water and sterilized with a 0.45 μm filter.
# 2. For the other test substances, dry solids were dissolved in distilled water and filter-sterilized as above.
# 3. 200 μL each of the test solutions was added dropwise onto the Phytagel media comprising the germinated spores obtained in (2) above. The AM fungi were treated using sterilized water as a negative (Mock) control and with GR24 at a final concentration of 100 nM as a positive control.
# 4. Culturing was performed in the dark for 7-10 days at 25° C.
# 5. Hyphal branching numbers were measured under a stereomicroscope.
# The hyphae that extended and branched directly from the hyphal stem had complex structures and branched well irrespective of the treatment conditions, and therefore they were excluded from the measurements of hyphal branching numbers. […]
# [2] = system: AM fungi colonizing lisianthus (Eustoma grandiflorum cv. Pink Thumb) root; assay: AM fungal colonization of host plant root in plant box: lisianthus; format: in vivo; design: AM fungal colonization rates compared with positive control gibberellin (GA): dose or concentration left out as unconfirmed; conditions: for root colonization events compared to the mock treatment: 4 weeks
# Description: (§1) To confirm that the identified active compounds not only promote hyphal branching of the AM fungi but also actually lead to increases of colonization and symbiosis with diverse plants, tests were carried out using lisianthus (Eustoma grandiflorum cv. Pink Thumb), tomato (Solanum lycopersicum L. cv. Sugar Lump), and chive (Allium schoenoprasum) as host plants.
# Culturing of the host plants and AM fungal colonization and treatments with the active compounds were performed according to the following procedures.
# (1) Plant box was assembled in 3 tiers: the top tier served as a lid having openings for ventilation, the middle tier was a box to which the culture soil (300 mL river sand) had been added, and the bottom tier was an empty box.
# (2) The plant box of (1) above was sterilized by autoclaving (121° C., 20 minutes).
# (3) To the culture soil of the middle box, 1000 spores of the AM fungi and 50 mL of the Hoagland hydroponic solution at a 1/10 concentration were added, and stirred with forceps. The active compounds such as GPS were added to the Hoagland hydroponic solution to treat the AM fungi and host plants.
# (4) In order to prevent drying of the culture soil, 50 mL of the Hoagland hydroponic solution at a 1/10 concentration was also added to the bottom box. A twisted piece of KimWipe was placed through a hole provided at the bottom of the middle box, with the lower tip of the Kim Wipe soaked into the solution in the bottom box, and therefore the culture soil was maintained without becoming dry.
# (5) Six seedlings of each host plant were planted per plant box, and cultured for 4 weeks in a culture chamber set at 24° C. and 14 hour light cycle.
# (6) After completing the culturing period above, the root of each host plant was sampled and preserved in an FAA fixative solution.
# Colonization rates of the AM fungi were measured according to the following procedures.
# (1) The root fixed in said fixative solution was cut into 1 cm fragments and immersed in a 10% KOH aqueous solution, and heated at 90° C. for 15 minutes. […]
# (§2) (4) Using a light microscope having an ocular lens fitted with an ocular micrometer, the stage was moved perpendicular to the root (in the Y-axis direction), and when the crosshair of the ocular micrometer touched the root, presence or absence of AM fungal hyphae in the root within the field of view was examined. The rate of hyphal invasion, i.e. colonization rate, as a total was calculated according to the following formula. […]
# (§3) The rate of arbuscule formation was calculated according to the above formula by replacing the numerator in parentheses, on the right-hand side of the equation, with “number of fields of view in which arbuscules were seen”.
# [3] = system: Rhizophagus clarus HR1; assay: Hyphal branching of a different AM fungus (as in Example 1); format: cell-based; conditions: FIG. 6
# Description: Essentially the same experiments as described in Example 1 were carried out, except that a different arbuscular mycorrhizal fungus, Rhizophagus clarus HR1, was used. […] The compositions of the present disclosure can increase hyphal branching of diverse arbuscular mycorrhizal fungi included in the order Glomerales besides those exemplified here.
# [4] = system: common broomrape (Orobanche minor) seeds; assay: Bioassay using common broomrape seeds (germination); format: cell-based; conditions: FIG. 5
# Excerpt: The seeds of the genus Orobanche and genus Striga plants, which are root-parasitic weeds, have the property to germinate in response to strigolactones released from the roots of agricultural plants which serve as hosts. These root-parasitic weeds are causing serious damage to crop production worldwide. This poses a hindrance to the external application of strigolactone as an agent for promoting arbuscular mycorrhizal fungus colonization.
# Effect of gentiopicroside (GPS) on the germination of common broomrape (Orobanche minor), a parasitic weed of the genus Orobanche, was investigated. Experiments were performed according to the following experimental procedures.
# (1) Common broomrape seeds were placed in a nylon mesh that had been shaped into a pouch (2 cm×2 cm×2 cm) by a sealer, and the opening of the pouch was closed.
# (2) The seeds, together with the pouch, were placed in a 1% sodium hypochlorite aqueous solution to sterilize the surface for 20 minutes, and then washed 3 times with sterilized water.
# (3) The pouch containing the seeds was placed on a filter paper dampened with sterilized water, and allowed to absorb water for 10 days at 25° C. in the dark.
# (4) 6 mm paper discs contained in a 96-well plate were moistened by adding 15 μL distilled water dropwise.
# (5) A new paper disc was placed on the paper disc of (4) above, and 20 μL of the test solution was added dropwise. Distilled water was used as a negative control (Mock) and 1 μM strigolactone (GR24) as a positive control. For the solvent for GPS, methanol was chosen due to its volatility.
# (6) For treating the common broomrape seeds with both GR24 and GPS, one reagent was first added dropwise, and after complete evaporation of the solvent, the other reagent was then added.
# (7) After the discs were left for 5 minutes to remove the solvent by evaporation, the common broomrape seeds of (3) above, which had been transferred to distilled water, were added together with the water as 5 μL drops.
# (8) After 5 days of culturing at 25° C. in the dark, the germination rates of the common broomrape were measured.
# [5] = system: AM fungi colonizing tomato (Solanum lycopersicum L. cv. Sugar Lump) root; assay: AM fungal colonization of host plant root in plant box: tomato; format: in vivo; conditions: 4 weeks, FIG. 4b
# Description: as §1
# (§4) Culturing of the host plants and AM fungal colonization and treatments with the active compounds were performed according to the following procedures. […]
# (§5) Colonization rates of the AM fungi were measured according to the following procedures. […]
# as §2, §3
# [6] = system: AM fungi colonizing chive (Allium schoenoprasum) root; assay: AM fungal colonization of host plant root in plant box: chive; format: in vivo
# Description: as §1, §4, §5, §2
# The rate of arbuscule formation was calculated according to the above formula by replacing the numerator in parentheses, on the right-hand side of the equation, with “number of fields of view in which arbuscules were seen”. […]
Compound,hyphal branch numbers compared to the negative control [1],hyphal branching activity compared with positive control GR24 [1],activity for promoting hyphal branching (hyphal branch number per spore) ([1]; FIG. 1),hyphal branching [3],further results
COC(=O)C1=CO[C@@H](O[C@@H]2O[C@H](CO)[C@@H](O)[C@H](O)[C@H]2O)[C@@H]2[C@@H](C)[C@@H](O)C[C@H]12 [Loganin],had the activity for the AM fungi to promote hyphal branching,comparable to those of Gentiopicroside and Swertiamarin and the positive control GR24,–,–,–
"C=C[C@@H]1C2=CCOC(=O)C2=CO[C@H]1O[C@@H]1O[C@H](CO)[C@@H](O)[C@H](O)[C@H]1O [GPS, Gentiopicroside]",–,comparable to or greater than that of GR24,significantly high activities for promoting hyphal branching,significant increases,"root colonization events compared to the mock treatment ([2]; 10 nM, Dunnett's test): statistically significant increase; root colonization events compared to the mock treatment ([2]; GPS treatments, FIG. 4a): increasing trend; outside-of-root hyphae of the AM fungi in the rhizosphere ([2]; GPS treatments, FIG. 4a, left): vigorously branching; AM fungal colonization rates compared with positive control gibberellin (GA) ([2]; positive control gibberellin): overall lower; germination of the common broomrape seeds ([4]; 1 to 1000 nM GPS alone, 5 days at 25° C. in the dark): did not germinate at all; germination rates of the common broomrape seeds ([4]; GPS treatment in the concurrent presence of GR24 treatment): ~100%; GPS concentration giving maximum average colonization rate of the AM fungi [5]: 100 nM; AM fungal colonization rate ([6]; 1 nM (lowest concentration tested), Dunnett's test): statistically significant increase; GPS concentration giving maximum average colonization rate of the AM fungi ([6]; 4 weeks, FIG. 4c): 10 nM"
"C=C[C@H]1[C@H](O[C@@H]2O[C@H](CO)[C@@H](O)[C@H](O)[C@H]2O)OC=C2C(=O)OCC[C@]21O [SWM, Swertiamarin]",–,comparable to or greater than that of GR24,significantly high activities for promoting hyphal branching,significant increases,–
Oleuropein,increased the hyphal branch numbers significantly,lower activities compared to GR24 and Loganin,–,–,–
COC(=O)C1=CO[C@@H](O[C@@H]2O[C@H](CO)[C@@H](O)[C@H](O)[C@H]2O)[C@@H]2C(CO)=CC[C@H]12 [Geniposide],increased the hyphal branch numbers significantly,lower activities compared to GR24 and Loganin,–,–,–
"CC1=C[C@H](O/C=C2/C(=O)O[C@@H]3c4ccccc4C[C@H]23)OC1=O (racemic) [GR24, rac-GR24, reference compound]",–,–,–,–,"hyphal branch number per spore compared to the Mock treatment ([1]; positive control, 100 nM, 7-10 days at 25° C. in the dark, FIG. 1): significant increase; hyphal branching ([3]; positive control, 100 nM): significant increases; germination rate of the common broomrape seeds ([4]; 1 μM GR24, 5 days at 25° C. in the dark): ~100%"
